These results are taken from US9296741B2, “Bromodomain inhibitors” (priority 2012, dated 2016).

For orientation: Ki means the equilibrium dissociation constant of an inhibitor or competing ligand from its target.

Series [1] has as its target human BRD4 first bromodomain (BDI_K57-E168) (Homo sapiens (Human), UniProt O60885). Kind of series: TR-FRET bromodomain binding assay, BRD4 first bromodomain.
The target of series [2] is human BRD4 second bromodomain (BDII_E352-M457) (Homo sapiens (Human), UniProt O60885). The series is described as follows: TR-FRET bromodomain binding assay, BRD4 second bromodomain. For orientation: TR-FRET usually uses a lanthanide donor and a delayed reading to cut background.
Series [3] concerns breast cancer cell line MX-1. Kind of series: MX-1 cell line proliferation assay. The class given is cell-based, human. Particulars: Homo sapiens, MX1, 72 h; MX-1 cells, 3-day proliferation, Cell Titer Glo; read-out: Cellular proliferation: EC50. (In general: Cellular ATP, detected with luciferase, serves as a proxy for viable cell number.)
Series [4] is described as follows: Human liver microsome stability assay. Particulars: both sexes, human, microsomes, pH 7.4. The class given is in vitro ADME. On the technique in general: Microsomes from liver hold many membrane-bound enzymes, among them those of drug oxidation.
The nature of series [5]: Rat liver microsome stability assay. The class given is in vitro ADME. Particulars: rat liver microsomes (male Sprague-Dawley), 0.5 μM test compound, pH 7.4, 37° C.; for half-life at 0.5 μM: 0.25 mg/mL microsomal protein, read-out: Stability in rat liver microsomes (t1/2 in minutes).
Series [6] can be described thus: Mouse liver microsome stability assay. The class given is in vitro ADME. Particulars: male, CD1, mouse, microsomes, pH 7.4.

With `CN(C)CCS(=O)(=O)Nc1ccc(Oc2ccc(F)cc2F)c(-c2cn(C)c(=O)c3[nH]ccc23)c1` [Example 300, N-[4-(2,4-difluorophenoxy)-3-(6-methyl-7-oxo-6,7-dihydro-1H-pyrrolo[2,3-c]pyridin-4-yl)phenyl]-2-(dimethylamino)ethanesulfonamide], the results for the Ki in series [1] and in series [2] were 389 nM and 190 nM, respectively. Moreover, the EC50 in series [3] turned out to be 176 nM. The half-life at 0.5 μM in series [4] turned out to be 30 min; in series [5], 21 min; in series [6], 17 min.

As for `Cn1cc(-c2cc(S(=O)(=O)N3CCc4ccccc43)ccc2OCC2CC2)c2cc[nH]c2c1=O` [Example 305, 4-[2-(cyclopropylmethoxy)-5-(2,3-dihydro-1H-indol-1-ylsulfonyl)phenyl]-6-methyl-1,6-dihydro-7H-pyrrolo[2,3-c]pyridin-7-one], the figures for the inhibition constant (Ki) in series [1] and in series [2] were 327 nM and 25.7 nM, respectively. In series [3], the EC50 was found to be 110 nM. Also, the figures for the half-life at 0.5 μM in series [4], in series [5] and in series [6] were 1 min, 2 min and 2 min, respectively.

Regarding `Cn1cc(-c2cc(S(C)(=O)=O)ccc2Oc2cccc(C(F)(F)F)c2)c2cc[nH]c2c1=O` [Example 157, 6-methyl-4-{5-(methylsulfonyl)-2-[3-(trifluoromethyl)phenoxy]phenyl}-1,6-dihydro-7H-pyrrolo[2,3-c]pyridin-7-one], the results for the inhibition constant (Ki) in series [1] and in series [2] were 30.8 nM and 21.8 nM, respectively. Further, the EC50 in series [3] is 150 nM. Moreover, the results for the half-life at 0.5 μM in series [4], in series [5] and in series [6] were 27 min, 53 min and 12 min, respectively.

Turning to `Cn1cc(-c2cc(CN3CCCS3(=O)=O)ccc2Oc2ccccc2)c2cc[nH]c2c1=O` [Example 41, 4-{5-[(1,1-dioxido-1,2-thiazolidin-2-yl)methyl]-2-phenoxyphenyl}-6-methyl-1,6-dihydro-7H-pyrrolo[2,3-c]pyridin-7-one], the Ki amounted to 2.8 nM in series [1] and 0.51 nM in series [2]. Moreover, in series [3], the EC50 amounted to 29.8 nM. Also, the half-life at 0.5 μM in series [4] was determined as 13.6 min; in series [6] it was 10 min. For the same compound, the “Stability in rat liver microsomes (t1/2 in minutes)” value in series [5] ([…] microsomal protein) amounted to 1 min.

As for `CNS(=O)(=O)Nc1ccc(OC2CCC(F)(F)CC2)c(-c2cn(C)c(=O)c3[nH]ccc23)c1` [Example 104, N-{4-[(4,4-difluorocyclohexyl)oxy]-3-(6-methyl-7-oxo-6,7-dihydro-1H-pyrrolo[2,3-c]pyridin-4-yl)phenyl}-N′-methylsulfuric diamide], the Ki in series [1] turned out to be 4.4 nM; in series [2], 17.9 nM. The EC50 in series [3] was found to be 65.3 nM. For the same compound, the half-life at 0.5 μM in series [4] worked out at 27 min; in series [5], 8 min; in series [6] it was 7 min.

Take `Cn1cc(-c2cc(S(C)(=O)=O)ccc2OC[C@@H]2CCC(=O)N2)c2cc[nH]c2c1=O` [Example 228, 6-methyl-4-[5-(methylsulfonyl)-2-{[(2S)-5-oxopyrrolidin-2-yl]methoxy}phenyl]-1,6-dihydro-7H-pyrrolo[2,3-c]pyridin-7-one]: the results for the Ki in series [1] and in series [2] were 39 nM and 108 nM, respectively. Also, the EC50 in series [3] was above 3000 nM. Moreover, the half-life at 0.5 μM is above 120 min in series [4], 107 min in series [5] and above 120 min in series [6].

Take `Cn1cc(-c2cc(S(=O)(=O)N3CCc4ccccc43)ccc2Oc2ccc(F)cc2F)c2cc[nH]c2c1=O` [Example 319, 4-[2-(2,4-difluorophenoxy)-5-(2,3-dihydro-1H-indol-1-ylsulfonyl)phenyl]-6-methyl-1,6-dihydro-7H-pyrrolo[2,3-c]pyridin-7-one]: the Ki in series [1] is 372 nM; in series [2], 9.9 nM. Also, in series [3], the EC50 was 435 nM. The half-life at 0.5 μM in series [4], in series [5] and in series [6] was 2 min each time.

In the case of `Cn1cc(-c2cc(NS(=O)(=O)CCF)ccc2Oc2ccc(F)cc2F)c2cc[nH]c2c1=O` [Example 64, N-[4-(2,4-difluorophenoxy)-3-(6-methyl-7-oxo-6,7-dihydro-1H-pyrrolo[2,3-c]pyridin-4-yl)phenyl]-2-fluoroethanesulfonamide], the inhibition constant (Ki) worked out at 53.1 nM in series [1] and 63.3 nM in series [2]. Besides, the EC50 in series [3] turned out to be 773 nM. The half-life at 0.5 μM in series [5] stood at 3 min; in series [6], 4 min.

As for `CCN(C)C(=O)c1cc2c(-c3cc(NS(C)(=O)=O)ccc3Oc3ccccc3)nn(C)c(=O)c2[nH]1` [Example 83, N-ethyl-N,6-dimethyl-4-{5-[(methylsulfonyl)amino]-2-phenoxyphenyl}-7-oxo-6,7-dihydro-1H-pyrrolo[2,3-d]pyridazine-2-carboxamide], the inhibitory constant (Ki) in series [1] was 20.9 nM; in series [2] it was 42.2 nM. For the same compound, the EC50 in series [3] stood at 424 nM. Further, the half-life at 0.5 μM in series [5] turned out to be 3 min; in series [6] it was 43 min.

As to `CN(C)Cc1cc2c(-c3cc(S(C)(=O)=O)ccc3Oc3ccc(F)cc3F)cn(C)c(=O)c2[nH]1` [Example 279, 4-[2-(2,4-difluorophenoxy)-5-(methylsulfonyl)phenyl]-2-[(dimethylamino)methyl]-6-methyl-1,6-dihydro-7H-pyrrolo[2,3-c]pyridin-7-one], the inhibition constant Ki in series [1] came to 31.4 nM; in series [2], 131 nM. Moreover, the EC50 in series [3] was 364 nM. Also, the results for the half-life at 0.5 μM in series [5] and in series [6] were 41 min and 91 min, respectively.

Turning to `Cn1cc(-c2cc(-c3cccc(F)c3)ccc2OCC2CC2)c2cc[nH]c2c1=O` [Example 334, 4-[4-(cyclopropylmethoxy)-3′-fluorobiphenyl-3-yl]-6-methyl-1,6-dihydro-7H-pyrrolo[2,3-c]pyridin-7-one], the inhibition constant (Ki) in series [1] was found to be 661 nM; in series [2] it was 1170 nM. Further, the EC50 in series [3] came to 515 nM. Also, the half-life at 0.5 μM in series [4] turned out to be 34 min; in series [6], 21 min.

For the compound `Cn1cc(-c2cc(C(=O)N3CCCC3)ccc2Oc2ccc(F)cc2F)c2cc[nH]c2c1=O` [Example 55, 4-[2-(2,4-difluorophenoxy)-5-(pyrrolidin-1-ylcarbonyl)phenyl]-6-methyl-1,6-dihydro-7H-pyrrolo[2,3-c]pyridin-7-one], the EC50 in series [3] was found to be 200 nM. Besides, the half-life at 0.5 μM in series [4] is 25 min; in series [5], 9 min; in series [6] it was 13 min.

On to `CNS(=O)(=O)c1cnc(NC2CCCCC2)c(-c2cn(C)c(=O)c3[nH]ccc23)c1` [Example 97, 6-(cyclohexylamino)-N-methyl-5-(6-methyl-7-oxo-6,7-dihydro-1H-pyrrolo[2,3-c]pyridin-4-yl)pyridine-3-sulfonamide], for which the EC50 in series [3] was determined as 14 nM. The half-life at 0.5 μM was 26 min in series [4], 9 min in series [5] and 28 min in series [6].

In the case of `CCNc1ccc(Oc2ccccc2)c(-c2nn(C)c(=O)c3[nH]c(C(=O)OCC)cc23)c1` [Example 75, ethyl 4-[5-(ethylamino)-2-phenoxyphenyl]-6-methyl-7-oxo-6,7-dihydro-1H-pyrrolo[2,3-d]pyridazine-2-carboxylate], the EC50 in series [3] stood at 478 nM. The figures for the half-life at 0.5 μM in series [4], in series [5] and in series [6] were 9 min, 3 min and 4 min, respectively.
